Experimental data taken from patent publication US20110318270A1, “DRUG IDENTIFICATION PROTOCOL FOR TYPE 2 DIABETES BASED ON GENE EXPRESSION SIGNATURES” (VERVA PHARMACEUTICALS LTD, priority 2009, published 2011).

Tests used:
[1] = tested on: 3T3-L1 adipocytes; experiment: Reversal of TNFα-induced insulin resistance, 2-deoxyglucose (2-DOG) uptake; assay type: cell-based
Procedure: Initially, a model of TNFα-induced insulin resistance in 3T3-L1 adipocytes was established as described previously (Sartipy and Loskutoff J Biol Chem 278:52298-52306, 2003). Following exposure of 3T3-L1 adipocytes to 3 ng/ml TNFα for 72 h, insulin resistance was determined by the ability of the cells to take up 2-deoxyglucose (2-DOG) in response to insulin. TNFα caused a 37% decrease in 2-DOG uptake compared with insulin-stimulated vehicle-treated cells (p<0.0001) (Table 1).
3T3-L1 adipocytes were either treated with vehicle—(Veh), 3 ng/ml TNFα-(TNF) or 3 ng/ml TNFα plus 10 μM TGZ and 5 mM ASA (TTA) as detailed above. Cells were then treated with insulin (0 or 10 nM) for 30 min followed by measurement of 2-deoxyglucose (2-DOG) uptake over the final 10 min of insulin stimulation. Data are presented as % change in 2-DOG uptake compared with vehicle-treated, insulin-stimulated cells and represent mean values±SEM of >3 independent experiments and each data point was assayed in triplicate. […] The amount of 2-DOG transported in vehicle-treated adipocytes was 20.5±3.4 pmol/min/well. Statistical analyses were performed using Student's t-Test assuming 2-tailed distribution and 2-sample equal variance.

[2] = tested on: 3T3-L1 adipocytes; experiment: HA-tagged GLUT4 translocation to the plasma membrane; assay type: cell-based; conditions: 10 μM for 20 h (ASA 5 mM), then 0.5 nM insulin
Procedure: FIGS. 2a and 2b are graphical representations of a compound stimulation of HA-tagged GLUT4 translocation to the plasma membrane in 3T3-L1 adipocytes. Adipocytes were incubated with 10 μM of each compound for 20 h prior to acute stimulation with 0.5 nM of insulin and measurement of HA-tagged GLUT4 translocation to the plasma membrane. a. The effect of the compound classes closest to TNFα plus ASA and TGZ co-incubated samples GES profile (see FIG. 1) on HA-tagged GLUT4 movement. Data are presented as fold change compared with 0.5 nM insulin alone set at 1.0 and represent mean values±SEM; n=12-40 per class. b. Individual CAI members effect on GLUT4 movement. […]
A secondary screen was next undertaken to test the 8 drug classes ranked most similar to the insulin re-sensitised TNFαplus ASA and TGZ co-treated samples to determine their ability to affect exogenous HA-tagged GLUT4 translocation to the plasma membrane in the presence of submaximal 0.5 nM insulin (Govers et al. Mol Cell Biol 24:6456-6466, 2004). Members from the sodium channel blockers, beta lactams, GABA antagonists, sulfamide antifolates, lipoxygenase inhibitors, dopamine antagonists, carbonic anhydrase inhibitors (CAIs) and antibiotics were incubated at 10 μM doses for 20 h and the overall effect of each class member was assessed and averaged.

[3] = tested on: Diet-induced obese (DIO) mice; experiment: Insulin sensitising effects of CAIs in diet-induced obese mice; assay type: in vivo; conditions: for reduction in the incremental area under the glucose curve (AUC) compared with vehicle-treated animals / glucose disposal: 50 mg/kg/day for 14 days, intraperitoneal glucose tolerance test
Procedure: Diet-induced obese (DIO) mice were treated with each CAI at 50 mg/kg/day for 14 days.

[4] = tested on: TNFα-treated 3T3-L1 adipocytes; experiment: TNFα-based GES small molecule library screen (MassARRAY, Zrcc score); assay type: cell-based; parameters: key: Zrcc: Z-score normalized for sample variation and gene contribution; conditions: 10 μM compound in final 24 h of 72 h TNFα (n=2); TTA n=29, TNF n=57
Procedure: In order to identify new insulin sensitizing agents, a small molecule library consisting of 1120 high-purity, off-patent chemical compounds was screened using the GES. First, 3T3 […] adipocytes were cultured in fourteen 96-well plates and incubated with 3 ng/ml TNFα for 72 h prior to the addition of 10 μM of each compound in the last 24 h of TNFα treatment. Four vehicle control, four TNFα and two TNFα plus ASA- and TGZ-treated wells serving as controls were included per 96-well plate. The aim of the screen was to identify compounds that caused the expression of the 7 gene GES to most closely resemble the expression levels observed in the insulin re-sensitized cells as this is likely to indicate that these cells have restored insulin sensitivity. Following RNA extraction and cDNA synthesis, gene expression analysis of the 7 gene GES was performed using the MassARRAY (Sequenom, San Diego, Calif.) [Cullinan and Cantor Pharmacogenomics 9:1211-1215, 2008]. Data are represented as a Z-score residual coefficient correlation (Zrcc); a Z-score that is normalised for sample to sample variation and for the relative contribution that each gene makes to the predictive power of the GES. Compounds were ranked based on their Zrcc score highest to lowest, and as an initial proof of concept validation test, the top ranked 30 compounds and 23 randomly chosen, mid-ranked compounds were subjected to 2-DOG uptake assays to determine their potential insulin sensitising effects. 3T3 […] adipocytes were incubated with 25 μM of each compound prior to performing 2-DOG uptake assays in the presence or absence of submaximal amounts of insulin (0.5 nM for 15 min).
The GES-ranked compounds were next broadly grouped into classes based on known mechanism of action or common structural features and re-represented as the mean Zrcc. Only compound classes with 10 or more members were considered further. As a result, the class of treatments that scored the highest, thus representing the most insulin sensitive cells, were the vehicle-treated cells with an average Zrcc score of 1.76±0.37; (p<0.0001 to TNFα treatment and p<0.002 to TNFαplus ASA and TGZ co-treatments).
In a CD63-only screen, TTA results with a negative score and TNF with a positive (p=0.02). Serving as internal controls in the screen, 3T3-L1 adipocytes were either treated with vehicle (0.2% w/v DMSO) for 72 h (n=55), 3 ng/ml TNFα for 72 h (TNF (n=57) or 3 ng/ml TNFα for 72 h plus 10 μM TGZ and 5 mM ASA in the final 24 h of the TNFα incubation (TTA) (n=29). The gene expression analysis of the GES was performed using the Mass ARRAY system (Cullinan and Cantor, 2008 supra). Data are calculated as a Z-score of the residual component following adjustment for total expression levels and incorporating the correlation coefficients derived from the Bayesian prediction model (Zrcc). The resulting metric is a Z-score that was normalized for sample to sample variation and for the relative contribution that each gene makes to the predictive power of the GES. Data are represented as mea Zrcc values±SEM (with p values compared with TNF-treated sample). The statistical analyses were performed using Student's t-Test assuming 2-tailed distribution and 2-sample equal variance.
In this assay, 3T3-L1 adipocytes were incubated with TNFα for 72 h followed by the addition of 10 μM of each compound in the final 24 h of the TNFα treatment (n=2). Compounds include VVP808, published insulin sensitizers furazolidone (FUR) (monoamine oxidase inhibitor), mesalamine (MES) and fosfosal (FOS) (NSAIDs), and estradiol-17-beta (EST), and known insulin resistance-inducing compounds such as ajmaline (AJM) (glucose uptake inhibitor) and corticosterone (COR) (glucocorticoid). Serving as internal controls in the screen, 3T3-L1 adipocytes were either treated with vehicle (0.2% DMSO) for 72 h (n=55), 3 ng/ml TNFα for 72 h) TNF) (n=57) or 3 ng/ml TNFα for 72 h plus 10 μM TGZ and […] ASA in the final 24 h of the TNFα incubation (TTA) (n=29). […]

[5] = tested on: db/db mice; conditions: for change in blood glucose levels compared with vehicle-treated animals: 300 mg/kg metformin or 20 mg/kg MTZ for 8 d
Procedure: Mice treated with MTZ (50 mg/kg/d) for 14 d were placed into metabolic cages for 24 h.

[6] = tested on: Diet-induced obese (DIO) mice; experiment: Insulin sensitising effects of CAIs in diet-induced obese mice; assay type: in vivo; conditions: for effect on glucose tolerance: 20-100 mg/kg/day for 14 days

For `CC(=O)Oc1ccccc1C(=O)O` [ASA, aspirin], the “reversal of TNFα impairment of insulin-stimulated 2-DOG uptake” value ([1]; 5 mM ASA and/or 10 μM TGZ in final 24 h of 72 h TNFα treatment) was “fully reversed TNFα effects” and the “HA-GLUT4 translocation above submaximal insulin” value [2] was “increased”.
In the case of `CNS(=O)(=O)c1nn(C)c(=NC(C)=O)s1` [MMTZ, N-methyl-methazolamide], the “reduction in the incremental area under the glucose curve (AUC) compared with vehicle-treated animals / glucose disposal” value [3] is reported as “not observed”.
In the case of `Nc1ccc(O)c(C(=O)O)c1` [MES, mesalamine], the “Mean Zrcc_GES ± SEM, CLU single gene” value [4] is reported as −0.9, the “Mean Zrcc_GES ± SEM, CS single gene” value [4] is reported as 3.1 and the “Mean Zrcc_GES ± SEM, STEAP4 single gene” value [4] is reported as −0.4.
`CC[C@H]1[C@@H]2C[C@H]3[C@@H]4N(C)c5ccccc5[C@]45C[C@@H]([C@H]2[C@H]5O)N3[C@@H]1O` [AJM, ajmaline] was tested, and the “Mean Zrcc_GES ± SEM, CLU single gene” value [4] was −0.2, the “Mean Zrcc_GES ± SEM, CS single gene” value [4] was −0.5 and the “Mean Zrcc_GES ± SEM, STEAP4 single gene” value [4] was 0.6.
For `O=C(O)c1ccccc1OP(=O)(O)O` [FOS, fosfosal], the “Mean Zrcc_GES ± SEM, CLU single gene” value [4] was 0.6, the “Mean Zrcc_GES ± SEM, CS single gene” value [4] was −0.05 and the “Mean Zrcc_GES ± SEM, STEAP4 single gene” value [4] was 0.3.
“Acute Insulin: insulin, 10 nM for 30 min” was tested, and the “2-DOG Uptake (% of insulin-stimulated alone)” value ([1]; insulin 10 nM 30 min, TNFα 3 ng/ml 72 h, 10 μM TGZ & 5 mM ASA final 24 h, mean ± SEM) was 100.0 ± 9.7% and the “fold increase in 2-DOG uptake above basal level” value ([1]; vehicle-treated, insulin-stimulated adipocytes (10 nM, 30 min)) was 6.6±0.6 fold.
For `CC(=O)/N=c1/sc(S(N)(=O)=O)nn1C` [MTZ, methazolamide], the “time of administration after which the fasting glucose effect peaked” value ([5]; db/db mice) was 7 days, the “time of administration after which the fasting glucose effect was seen” value ([5]; db/db mice) was 3 days and the “lower HbA1c levels” value ([5]; db/db mice, 50 mg/kg for 28 days, vs vehicle) was “up to 23%”. The “reduction of glucose urine concentration compared with vehicle-treated mice” value ([5]; db/db mice, 50 mg/kg/d for 14 d, metabolic cages 24 h) was 18%, the “change in blood glucose levels compared with vehicle-treated animals” value ([5]; db/db mice) was “significantly lower change” and the fasting glucose levels ([5]; db/db mice, 20 or 50 mg/kg/d for 14 days) was “dose-dependent decrease”. For the same molecule, the “body weight, food or water intake” value ([5]; mouse, in vivo, 20 mg/kg) was “No change”, the “decrease in food intake” value ([5]; mouse, in vivo, 50 mg/kg) was 27% and the food intake ([5]; mouse, in vivo, 50 mg/kg) was 4.8 ± 0.5 g/day. The “change in fasting blood glucose after the treatment period” value ([5]; pair-fed db/db mice, 8 days, n=6/group) was -6.2 ± 1.5 mM, the plasma insulin levels ([6]; 14 days, dose range) was “dose-dependent decrease” and the “circulating glucose levels compared with vehicle-treated mice” value ([6]; concentrations above 20 mg/kg, 14 days) was “significant reduction”. The “body weight, food and water intake or epididymal fat mass compared with vehicle-treated mice” value [3] was “without significant changes”, the “reduction in the incremental area under the glucose curve (AUC) compared with vehicle-treated animals / glucose disposal” value [3] was 27% and the “24 h urine output and creatine excretion” value ([3]; vs vehicle-treated) was “not significantly altered”.
`NS(=O)(=O)c1cc(Cl)c(Cl)c(S(N)(=O)=O)c1` [DCP, dichlorphenamide] was tested, and the “effect on glucose tolerance” value [6] was “no significant effect” and the “reduction in the incremental area under the glucose curve (AUC) compared with vehicle-treated animals / glucose disposal” value [3] was “did not affect glucose disposal”.
With `O=C1OCCN1/N=C/c1ccc([N+](=O)[O-])o1` [FUR, furazolidone] the “Mean Zrcc_GES ± SEM, CLU single gene” value [4] was 0.4, the “Mean Zrcc_GES ± SEM, CS single gene” value [4] was −0.2 and the “Mean Zrcc_GES ± SEM, STEAP4 single gene” value [4] was 0.7.
In the case of estradiol-17-beta, the “Mean Zrcc_GES ± SEM, CLU single gene” value [4] is reported as 0.5, the “Mean Zrcc_GES ± SEM, CS single gene” value [4] is reported as 0.04 and the “Mean Zrcc_GES ± SEM, STEAP4 single gene” value [4] is reported as 0.3.
With `C[C@]12C[C@H](O)[C@H]3[C@@H](CCC4=CC(=O)CC[C@@]43C)[C@@H]1CC[C@@H]2C(=O)CO` [COR, corticosterone] the “Mean Zrcc_GES ± SEM, CLU single gene” value [4] was 0.5, the “Mean Zrcc_GES ± SEM, CS single gene” value [4] was −0.5 and the “Mean Zrcc_GES ± SEM, STEAP4 single gene” value [4] was −0.2.
`CN(C)C(=N)N=C(N)N` [metformin] was tested, and the “change in blood glucose levels compared with vehicle-treated animals” value ([5]; db/db mice) was “significantly lower change”.
In the case of `NS(=O)(=O)c1cc(C(=O)O)c(NCc2ccco2)cc1Cl` [furosemide], the “effect on glucose tolerance” value [6] is reported as “no significant effect”.
`NS(=O)(=O)c1cc(C2(O)NC(=O)c3ccccc32)ccc1Cl` (stereo not shown) [CTD, chlorthalidone] was tested, and the “effect on glucose tolerance” value [6] was “no significant effect” and the “reduction in the incremental area under the glucose curve (AUC) compared with vehicle-treated animals / glucose disposal” value [3] was “did not affect glucose disposal”.
For `Nc1ccccc1S(N)(=O)=O` [2ABS, 2-aminobenzene sulphonamide], the “effect on glucose tolerance” value [6] was “no significant effect” and the “reduction in the incremental area under the glucose curve (AUC) compared with vehicle-treated animals / glucose disposal” value [3] was “did not affect glucose disposal”.
With `CC(=O)/N=c1/sc(S(N)(=O)=O)nn1C` [compound 808] the “Mean Zrcc_GES ± SEM, CLU single gene” value [4] was −0.4, the “Mean Zrcc_GES ± SEM, CS single gene” value [4] was 0.2 and the “Mean Zrcc_GES ± SEM, STEAP4 single gene” value [4] was 0.5.
